pIC50: −log10 of the molar value. Each block holds one molecule with its values, some of them ahead of it.
Test system: K98450-129-R-PDC complex spheroid growth, percent test/control
Experiment: Anticancer human tumor K98450-129-R-PDC patient-derived colon adenocarcinoma cell line growth inhibition [RAS]
Conditions: for pIC50: curve of first compound; for viability, T/C: stronger effect = lower value
Outline: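 Tumour cells grown as complex spheroids with HUVEC endothelial cells and mesenchymal stem cells, treated with RAS pathway inhibitor combinations. Each agent spans half-log steps from near clinical Cmax, or 10 microM where Cmax is unknown.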

[1] = second compound 0.000949 µM, first compound 0.0316 µM
[2] = second compound 0.000949 µM, first compound 0.1 µM
[3] = second compound 0.003 µM, first compound 0.0316 µM
[4] = second compound 0.003 µM, first compound 0.1 µM
[5] = second compound 0.00949 µM, first compound 0.0316 µM
[6] = second compound 0.00949 µM, first compound 0.1 µM
[7] = second compound 0.03 µM, first compound 0.0316 µM
[8] = second compound 0.03 µM, first compound 0.1 µM
[9] = second compound 0.0949 µM, first compound 0.0316 µM
[10] = second compound 0.0949 µM, first compound 0.1 µM
[11] = second compound 0.3 µM, first compound 0.0316 µM
[12] = second compound 0.3 µM, first compound 0.1 µM
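Note: spheroids exposed to agents for seven days before the viability readout.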
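Throughout, for viability, T/C: luminescence used as a proxy for viable cell amount.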

pIC50 (second compound 0.000949 µM): < 7.00 | pIC50 (second compound 0.003 µM): < 7.00 | pIC50 (second compound 0.00949 µM): < 7.00 | pIC50 (second compound 0.03 µM): 8.00 | pIC50 (second compound 0.0949 µM): > 9.50 | pIC50 (second compound 0.3 µM): > 9.50
SMILES: CC(C)n1nc(-c2ccc3oc(N)nc3c2)c2c(N)ncnc21 + CCn1c(-c2cc(N3CCN(C)CC3)cnc2C(C)OC)c2c3cc(ccc31)-c1csc(n1)CC(NC(=O)C1CC1C)C(=O)N1CCCC(N1)C(=O)OCC(C)(C)C2
viability, T/C (second compound 0.000949 µM, first compound 0.000316 µM): 98.9% | viability, T/C (second compound 0.000949 µM, first compound 0.001 µM): 80.9% | viability, T/C (second compound 0.000949 µM, first compound 0.00316 µM): 91.9% | viability, T/C (second compound 0.000949 µM, first compound 0.01 µM): 70.7% | viability, T/C [1]: 82.7% | viability, T/C [2]: 70.7% | viability, T/C (second compound 0.003 µM, first compound 0.000316 µM): 88.4% | viability, T/C (second compound 0.003 µM, first compound 0.001 µM): 70.8% | viability, T/C (second compound 0.003 µM, first compound 0.00316 µM): 76.1% | viability, T/C (second compound 0.003 µM, first compound 0.01 µM): 65.4% | viability, T/C [3]: 71.2% | viability, T/C [4]: 64% | viability, T/C (second compound 0.00949 µM, first compound 0.000316 µM): 80.7% | viability, T/C (second compound 0.00949 µM, first compound 0.001 µM): 60.1% | viability, T/C (second compound 0.00949 µM, first compound 0.00316 µM): 63.9% | viability, T/C (second compound 0.00949 µM, first compound 0.01 µM): 57.4% | viability, T/C [5]: 60.2% | viability, T/C [6]: 48.1% | viability, T/C (second compound 0.03 µM, first compound 0.000316 µM): 44.8% | viability, T/C (second compound 0.03 µM, first compound 0.001 µM): 57.9% | viability, T/C (second compound 0.03 µM, first compound 0.00316 µM): 46.3% | viability, T/C (second compound 0.03 µM, first compound 0.01 µM): 51.4% | viability, T/C [7]: 36.9% | viability, T/C [8]: 36.1% | viability, T/C (second compound 0.0949 µM, first compound 0.000316 µM): 19.6% | viability, T/C (second compound 0.0949 µM, first compound 0.001 µM): 20.5% | viability, T/C (second compound 0.0949 µM, first compound 0.00316 µM): 17.9% | viability, T/C (second compound 0.0949 µM, first compound 0.01 µM): 15.8% | viability, T/C [9]: 14.6% | viability, T/C [10]: 11.1% | viability, T/C (second compound 0.3 µM, first compound 0.000316 µM): 9.98% | viability, T/C (second compound 0.3 µM, first compound 0.001 µM): 11% | viability, T/C (second compound 0.3 µM, first compound 0.00316 µM): 10.3% | viability, T/C (second compound 0.3 µM, first compound 0.01 µM): 8.15% | viability, T/C [11]: 7.88% | viability, T/C [12]: 7.36%

pIC50 (second compound 0.000949 µM): < 5.00 | pIC50 (second compound 0.003 µM): < 5.00 | pIC50 (second compound 0.00949 µM): < 5.00 | pIC50 (second compound 0.03 µM): < 5.00 | pIC50 (second compound 0.0949 µM): > 7.50 | pIC50 (second compound 0.3 µM): > 7.50
SMILES: C[C@@H](NC(=O)c1ncnc(N)c1Cl)c1ncc(C(=O)Nc2cc(C(F)(F)F)c(Cl)cn2)s1 + CCn1c(-c2cc(N3CCN(C)CC3)cnc2C(C)OC)c2c3cc(ccc31)-c1csc(n1)CC(NC(=O)C1CC1C)C(=O)N1CCCC(N1)C(=O)OCC(C)(C)C2
viability, T/C [1]: 105% | viability, T/C [2]: 103% | viability, T/C (second compound 0.000949 µM, first compound 0.316 µM): 106% | viability, T/C (second compound 0.000949 µM, first compound 1 µM): 97.2% | viability, T/C (second compound 0.000949 µM, first compound 3.16 µM): 103% | viability, T/C (second compound 0.000949 µM, first compound 10 µM): 90.5% | viability, T/C [3]: 105% | viability, T/C [4]: 88.8% | viability, T/C (second compound 0.003 µM, first compound 0.316 µM): 88.4% | viability, T/C (second compound 0.003 µM, first compound 1 µM): 90.7% | viability, T/C (second compound 0.003 µM, first compound 3.16 µM): 110% | viability, T/C (second compound 0.003 µM, first compound 10 µM): 77.1% | viability, T/C [5]: 76.1% | viability, T/C [6]: 70.7% | viability, T/C (second compound 0.00949 µM, first compound 0.316 µM): 81.8% | viability, T/C (second compound 0.00949 µM, first compound 1 µM): 88.8% | viability, T/C (second compound 0.00949 µM, first compound 3.16 µM): 75.3% | viability, T/C (second compound 0.00949 µM, first compound 10 µM): 62.4% | viability, T/C [7]: 57.7% | viability, T/C [8]: 62.3% | viability, T/C (second compound 0.03 µM, first compound 0.316 µM): 74.1% | viability, T/C (second compound 0.03 µM, first compound 1 µM): 67.3% | viability, T/C (second compound 0.03 µM, first compound 3.16 µM): 73.9% | viability, T/C (second compound 0.03 µM, first compound 10 µM): 51.5% | viability, T/C [9]: 25.3% | viability, T/C [10]: 31.9% | viability, T/C (second compound 0.0949 µM, first compound 0.316 µM): 37% | viability, T/C (second compound 0.0949 µM, first compound 1 µM): 31.9% | viability, T/C (second compound 0.0949 µM, first compound 3.16 µM): 37.3% | viability, T/C (second compound 0.0949 µM, first compound 10 µM): 17.8% | viability, T/C [11]: 11.4% | viability, T/C [12]: 14.6% | viability, T/C (second compound 0.3 µM, first compound 0.316 µM): 16.4% | viability, T/C (second compound 0.3 µM, first compound 1 µM): 13.5% | viability, T/C (second compound 0.3 µM, first compound 3.16 µM): 16% | viability, T/C (second compound 0.3 µM, first compound 10 µM): 11%
